Assay results reported in PubChem BioAssay AID2060906 (Molecular Pharmacology Branch, DTP, NCI, 2025).

System: 485176-168-R4-J1-PDC complex spheroid growth
Experiment: Anticancer human tumor 485176-168-R4-J1-PDC patient-derived pancreatic adenocarcinoma cell line growth inhibition [RAS]
Conditions: for IC50: curve of first compound; for viability, T/C: stronger effect = lower value; active = viability on the fitted dose curve at most 10% of control; inactive = the rest
How it was run: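 Tumour cells grown as complex spheroids with HUVEC endothelial cells and mesenchymal stem cells, treated with RAS pathway inhibitor combinations. Each agent spans half-log steps from near clinical Cmax, or 10 microM where Cmax is unknown.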

[1] = second compound 0.000949 µM, first compound 0.0316 µM
[2] = second compound 0.000949 µM, first compound 0.1 µM
[3] = second compound 0.000949 µM, first compound 0.316 µM
[4] = second compound 0.000949 µM, first compound 1 µM
[5] = second compound 0.003 µM, first compound 0.0316 µM
[6] = second compound 0.003 µM, first compound 0.1 µM
[7] = second compound 0.003 µM, first compound 0.316 µM
[8] = second compound 0.003 µM, first compound 1 µM
[9] = second compound 0.00949 µM, first compound 0.0316 µM
[10] = second compound 0.00949 µM, first compound 0.1 µM
[11] = second compound 0.00949 µM, first compound 0.316 µM
[12] = second compound 0.00949 µM, first compound 1 µM
[13] = second compound 0.03 µM, first compound 0.0316 µM
[14] = second compound 0.03 µM, first compound 0.1 µM
[15] = second compound 0.03 µM, first compound 0.316 µM
[16] = second compound 0.03 µM, first compound 1 µM
[17] = second compound 0.0949 µM, first compound 0.0316 µM
[18] = second compound 0.0949 µM, first compound 0.1 µM
[19] = second compound 0.0949 µM, first compound 0.316 µM
[20] = second compound 0.0949 µM, first compound 1 µM
[21] = second compound 0.3 µM, first compound 0.0316 µM
[22] = second compound 0.3 µM, first compound 0.1 µM
[23] = second compound 0.3 µM, first compound 0.316 µM
[24] = second compound 0.3 µM, first compound 1 µM
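Note: spheroids exposed to compounds for seven days before readout.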
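Throughout, for viability, T/C: luminescence viability expressed relative to DMSO vehicle wells set as 100%.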

CCN1CCN(Cc2ccc(Nc3ncc(F)c(-c4cc(F)c5nc(C)n(C(C)C)c5c4)n3)nc2)CC1 + CCn1c(-c2cc(N3CCN(C)CC3)cnc2C(C)OC)c2c3cc(ccc31)-c1csc(n1)CC(NC(=O)C1CC1C)C(=O)N1CCCC(N1)C(=O)OCC(C)(C)C2
> 1 µM: IC50 (second compound 0.000949 µM) | IC50 (second compound 0.003 µM) | IC50 (second compound 0.3 µM)
inactive: viability, T/C (second compound 0.000949 µM, first compound 0.00316 µM) 78.7% | viability, T/C (second compound 0.000949 µM, first compound 0.01 µM) 80.9% | viability, T/C [1] 81% | viability, T/C [2] 67.4% | viability, T/C [3] 73% | viability, T/C [4] 54.8% | viability, T/C (second compound 0.003 µM, first compound 0.00316 µM) 84.9% | viability, T/C (second compound 0.003 µM, first compound 0.01 µM) 76.5% | viability, T/C [5] 85.2% | viability, T/C [6] 66.9% | viability, T/C [7] 62.7% | viability, T/C [8] 53.8% | viability, T/C (second compound 0.00949 µM, first compound 0.00316 µM) 75.3% | viability, T/C (second compound 0.00949 µM, first compound 0.01 µM) 85.8% | viability, T/C [9] 73.4% | viability, T/C [10] 70.2% | viability, T/C [11] 63% | viability, T/C [12] 45.9% | viability, T/C (second compound 0.03 µM, first compound 0.00316 µM) 77.5% | viability, T/C (second compound 0.03 µM, first compound 0.01 µM) 68.1% | viability, T/C [13] 75.3% | viability, T/C [14] 58.3% | viability, T/C [15] 63.8% | viability, T/C [16] 47.9% | viability, T/C (second compound 0.0949 µM, first compound 0.00316 µM) 64.7% | viability, T/C (second compound 0.0949 µM, first compound 0.01 µM) 74.7% | viability, T/C [17] 59.2% | viability, T/C [18] 55.1% | viability, T/C [19] 51.6% | viability, T/C [20] 52% | viability, T/C (second compound 0.3 µM, first compound 0.00316 µM) 54.9% | viability, T/C (second compound 0.3 µM, first compound 0.01 µM) 76.6% | viability, T/C [21] 70.9% | viability, T/C [22] 65.3% | viability, T/C [23] 53.5% | viability, T/C [24] 51%
0.929 µM: IC50 (second compound 0.0949 µM)
0.756 µM: IC50 (second compound 0.00949 µM)
0.938 µM: IC50 (second compound 0.03 µM)

CC(Nc1ccc2c(c1)OCCn1cc(N3C(=O)OCC3C(F)F)nc1-2)C(N)=O (stereo unspecified) + CCn1c(-c2cccnc2C(C)OC)c2c3cc(ccc31)N1CCOC(CC(NC(=O)C(C(C)C)N(C)C(=O)C3(F)CCN(C(=O)C#CC(C)(C)N(C)C)CC3)C(=O)N3CCCC(N3)C(=O)OCC(C)(C)C2)C1
8.61 µM: IC50 (second compound 0.000949 µM)
9.14 µM: IC50 (second compound 0.00949 µM)
> 10 µM: IC50 (second compound 0.03 µM) | IC50 (second compound 0.0949 µM)
5.26 µM: IC50 (second compound 0.3 µM)
inactive: viability, T/C [1] 92.9% | viability, T/C [2] 73.4% | viability, T/C [3] 93.6% | viability, T/C [4] 77.1% | viability, T/C (second compound 0.000949 µM, first compound 3.16 µM) 84.2% | viability, T/C (second compound 0.000949 µM, first compound 10 µM) 45% | viability, T/C [5] 97.2% | viability, T/C [6] 86.6% | viability, T/C [7] 85.7% | viability, T/C [8] 74.5% | viability, T/C (second compound 0.003 µM, first compound 3.16 µM) 85.4% | viability, T/C (second compound 0.003 µM, first compound 10 µM) 45.2% | viability, T/C [9] 94.4% | viability, T/C [10] 79.2% | viability, T/C [11] 77.6% | viability, T/C [12] 70.9% | viability, T/C (second compound 0.00949 µM, first compound 3.16 µM) 98.3% | viability, T/C (second compound 0.00949 µM, first compound 10 µM) 47.1% | viability, T/C [13] 76.8% | viability, T/C [14] 94.1% | viability, T/C [15] 88.9% | viability, T/C [16] 73.4% | viability, T/C (second compound 0.03 µM, first compound 3.16 µM) 76.1% | viability, T/C (second compound 0.03 µM, first compound 10 µM) 56.5% | viability, T/C [17] 90.4% | viability, T/C [18] 67.9% | viability, T/C [19] 75.8% | viability, T/C [20] 51.9% | viability, T/C (second compound 0.0949 µM, first compound 3.16 µM) 89.6% | viability, T/C (second compound 0.0949 µM, first compound 10 µM) 57% | viability, T/C [21] 61.5% | viability, T/C [22] 73.4% | viability, T/C [23] 60.4% | viability, T/C [24] 61.5% | viability, T/C (second compound 0.3 µM, first compound 3.16 µM) 59.2% | viability, T/C (second compound 0.3 µM, first compound 10 µM) 39.9%
8.69 µM: IC50 (second compound 0.003 µM)

Cc1nc(N2CCC3(CC2)COC(C)C3N)c(CO)nc1Sc1ccnc(N)c1Cl (stereo unspecified) + C=CC(=O)N1CCN(c2nc(OCC3CCCN3C)nc3c(F)c(-c4nc(N)cc(C)c4C(F)(F)F)c(Cl)cc23)C(C)C1
inactive: viability, T/C (second compound 0.00316 µM, first compound 0.0316 µM) 95.1% | viability, T/C (second compound 0.00316 µM, first compound 0.1 µM) 91.5% | viability, T/C (second compound 0.00316 µM, first compound 0.316 µM) 77.3% | viability, T/C (second compound 0.00316 µM, first compound 1 µM) 71.3% | viability, T/C (second compound 0.00316 µM, first compound 3.16 µM) 79.7% | viability, T/C (second compound 0.00316 µM, first compound 10 µM) 76% | viability, T/C (second compound 0.01 µM, first compound 0.0316 µM) 96.3% | viability, T/C (second compound 0.01 µM, first compound 0.1 µM) 76.5% | viability, T/C (second compound 0.01 µM, first compound 0.316 µM) 78.7% | viability, T/C (second compound 0.01 µM, first compound 1 µM) 74.2% | viability, T/C (second compound 0.01 µM, first compound 3.16 µM) 75.3% | viability, T/C (second compound 0.01 µM, first compound 10 µM) 90.6% | viability, T/C (second compound 0.0316 µM, first compound 0.0316 µM) 94% | viability, T/C (second compound 0.0316 µM, first compound 0.1 µM) 91.5% | viability, T/C (second compound 0.0316 µM, first compound 0.316 µM) 87.2% | viability, T/C (second compound 0.0316 µM, first compound 1 µM) 71.8% | viability, T/C (second compound 0.0316 µM, first compound 3.16 µM) 66.6% | viability, T/C (second compound 0.0316 µM, first compound 10 µM) 71.7% | viability, T/C (second compound 0.1 µM, first compound 0.0316 µM) 91.1% | viability, T/C (second compound 0.1 µM, first compound 0.1 µM) 92.8% | viability, T/C (second compound 0.1 µM, first compound 0.316 µM) 82.5% | viability, T/C (second compound 0.1 µM, first compound 1 µM) 65.1% | viability, T/C (second compound 0.1 µM, first compound 3.16 µM) 77.6% | viability, T/C (second compound 0.1 µM, first compound 10 µM) 74.6% | viability, T/C (second compound 0.316 µM, first compound 0.0316 µM) 101% | viability, T/C (second compound 0.316 µM, first compound 0.1 µM) 99.8% | viability, T/C (second compound 0.316 µM, first compound 0.316 µM) 81.8% | viability, T/C (second compound 0.316 µM, first compound 1 µM) 83.6% | viability, T/C (second compound 0.316 µM, first compound 3.16 µM) 74.2% | viability, T/C (second compound 0.316 µM, first compound 10 µM) 71% | viability, T/C (second compound 1 µM, first compound 0.0316 µM) 103% | viability, T/C (second compound 1 µM, first compound 0.1 µM) 91% | viability, T/C (second compound 1 µM, first compound 0.316 µM) 80.4% | viability, T/C (second compound 1 µM, first compound 1 µM) 73.2% | viability, T/C (second compound 1 µM, first compound 3.16 µM) 81.5% | viability, T/C (second compound 1 µM, first compound 10 µM) 76.5%
> 10 µM: IC50 (second compound 0.00316 µM) | IC50 (second compound 0.01 µM) | IC50 (second compound 0.0316 µM) | IC50 (second compound 0.1 µM) | IC50 (second compound 0.316 µM) | IC50 (second compound 1 µM)
